Measurements as given in patent US12258583B2, “Embryonic erythroblast-containing cell population and method for producing same, cell culture composition, and compound test method” (SUMITOMO CHEMICAL COMPANY, LIMITED, priority 2018, dated 2025).

Assays:
[1] = tested on: K562 cells; test: Differentiation culture of K562 cells with inducer, β-globin gene family expression by real-time PCR; assay type: cell-based, human; conditions: 1 mM sodium butyrate
Procedure: (§1) The percentage of expression of the β-globin gene family expressed in cells of the above cell population was checked by real-time PCR. The floating cell population-containing medium at Day 10, 14, or 18 after the start of suspension culture (step (1)) was centrifuged for 5 min at 1000 rpm in a centrifuge (CF8DL; manufactured by Koki Holdings Co., Ltd.) to remove the supernatant. The resulting cells were washed with PBS (manufactured by Thermo Fisher Scientific, Inc.), centrifuged for 3 min at 7500 rpm in a centrifuge (centrifuge 5424; manufactured by Eppendorf, Inc.), and then subjected to total RNA extraction from the cells using an RNeasy Micro Kit (manufactured by QIAGEN, Inc.). The resulting total RNA was subjected to reverse transcription using SuperScript III (manufactured by Thermo Fisher Scientific, Inc.). Subsequently, the resulting cDNA was used as a template to perform real-time PCR by using TaqMan probes (manufactured by Thermo Fisher Scientific, Inc.) and a TaqMan Fast Advanced Master Mix (manufactured by Thermo Fisher Scientific, Inc.) in a 96-well plate under Fast PCR conditions according to the instruction in the package insert. The TaqMan probes used were human probes designated in Table 2.
(§2) The gene product containing a TaqMan probe target sequence for each member of the β-globin gene family, namely ε-globin, γ-globin, or β-globin, was used to draw a standard curve. Then, the mRNA copy number for each β-globin gene family member expressed was quantified. The value obtained by dividing the copy number for each β-globin gene family member expressed by the total β-globin gene family copy number was shown as the percentage of expression of each β-globin gene family member. The production of embryonic erythroblast-containing cell population and the analysis by real-time PCR were independently triplicated to calculate the average and the standard error.
Human chronic myeloid leukemia-derived cell line K562 cells (obtained from Health Science Research Resources Bank) were used as other hematopoietic cells to check expression of ε-globin. K562 cells were cultured and maintained as follows. RPMI medium (Roswell Park Memorial Institute 1640; manufactured by Thermo Fisher Scientific, Inc.) containing 10% FBS (manufactured by Corning, Inc.) and 1% penicillin-streptomycin (manufactured by Sigma-Aldrich Co. LLC) (hereinafter, referred to as “K562 medium”) was used, and the cells were subjected to suspension culture on a low-adherent 6-cm dish (manufactured by Sumitomo Bakelite Co., Ltd.). The floating cell-containing medium was collected once every 7 days, and centrifuged for 5 min at 1000 rpm in a centrifuge (SCTSBA; manufactured by Koki Holdings Co., Ltd.) to remove the supernatant. The K562 cells were suspended in 5 mL of K562 medium and seeded at 5×10^5 cells per dish, and cultured under conditions at 37° C. and 5% CO2.
It has been known that addition of an inducer (sodium butyrate) causes an increase in the expression of εs-globin in K562 cells. Thus, a change in expression of ε-globin after addition of sodium butyrate was checked over time. For differentiation culture of K562 cells, K562 medium containing 1 mM sodium butyrate (manufactured by Sigma-Aldrich Co. LLC) was used. The cells were suspended in 5 mL of the above medium and seeded at 5×10^5 cells per low-adherent 6-cm dish, and cultured under conditions at 37° C. and 5% CO2. The floating cell-containing medium was collected at Day 0, 2, 4, or 8 after the start of differentiation culture, and centrifuged for 5 min at 1000 rpm in a centrifuge (SCTSBA; manufactured by Koki Holdings Co., Ltd.) to remove the supernatant.
Like the evaluation protocol by real-time PCR in Example 1, the percentage of expression of each β-globin gene family member expressed in cells was determined by real-time PCR. […] About 30% or less of the β-globin gene family were an embryonic erythroblast marker ε-globin gene under any of the conditions.

[2] = tested on: K562 cells; conditions: known from the art; cited from earlier work
[3] = tested on: embryonic erythroblast-containing cell population produced from human iPS cells; test: Compound test using embryonic erythroblast-containing cell population produced from human iPS cells (heme, PPIX by LC-MS, viable cell count, viability); assay type: cell-based; conditions: DHA 0.5 or 1 μM, SA 10 or 30 μM, Day 18 (Day 8 after start of step (C)); for viable cell count: FIG. 12C; for viability of cells: FIG. 12D
Procedure: The procedure illustrated in FIG. 11 was used to conduct a compound test using an embryonic erythroblast-containing cell population produced from human iPS cells. Differentiation of human iPS cells was induced by substantially the same procedure as in Example 1 to produce an embryonic erythroblast-containing cell population at Day 10 after the start of suspension culture (step (A)) (Step (A) and Step (B)). The cells were centrifuged for 5 min at 1000 rpm in a centrifuge (CF8DL; manufactured by Koki Holdings Co., Ltd.) to remove the supernatant. Next, STEMdiff+B medium was added to the precipitate. Subsequently, the cells were suspended and seeded at 2×10^5 cells in 1.5 mL of medium per well of a […] 6-well plate (manufactured by Corning, Inc.). Then, suspension culture was started (step (C) was started). To the medium at that time was added, as a test compound, dihydroartemisinin (hereinafter, referred to as “DHA”) (at a final concentration of 0.5 μM or 1 μM) or succinylacetone (hereinafter, referred to as “SA”) (at a final concentration of 10 μM or 30 μM). As a solvent control, DMSO was added.
At Day 18 (Day 8 after the start of step (C)) after the start of suspension culture (step (A)), the resulting cell population-containing medium was collected from the 6-well plate. Next, 0.4×10^5 cells to 1×10^5 cells were pipetted into an Eppendorf tube, and centrifuged for 3 min at 7500 rpm in a centrifuge (centrifuge 5424; manufactured by Eppendorf, Inc.) to remove the supernatant and give a cell pellet. The concentration of heme or protoporphyrin IX (hereinafter, referred to as “PPIX”) included in this cell pellet was quantified using liquid chromatography-mass spectrometry (LC-MS) (step (D)). A change in the concentration of heme or PPIX by addition of a test compound was examined to be able to evaluate how the test compound affected the heme biosynthesis pathway. In addition, the number of cells collected after the culture was counted to determine viability.
The concentration of heme or PPIX was represented in weight per 10^6 cells (ng/10^6 cells). DHA or SA, which is known to inhibit heme synthesis, caused a decrease in the heme concentration at Day 18 (Day 8 after the start of step (C)) after the start of suspension culture (step (A)) when compared to a solvent control (FIG. 12A). […] A hypothesis that DHA can induce anemia by inhibiting the most downstream ferrochelatase has been proposed (Clark et al. (2018) Birth Defects Research 110: 553-578). […] In addition, DHA or SA decreased the viable cell count and viability of cells included in the cell population (FIGS. 12C and D). In Example 1, the cell population included embryonic erythroblasts at a high percentage.

[4] = target: T1, aminolevulinic acid dehydrogenase (Homo sapiens, UniProt P13716); conditions: Sassa et al. (1983); cited from earlier work
T1 sequence (P13716 1-330): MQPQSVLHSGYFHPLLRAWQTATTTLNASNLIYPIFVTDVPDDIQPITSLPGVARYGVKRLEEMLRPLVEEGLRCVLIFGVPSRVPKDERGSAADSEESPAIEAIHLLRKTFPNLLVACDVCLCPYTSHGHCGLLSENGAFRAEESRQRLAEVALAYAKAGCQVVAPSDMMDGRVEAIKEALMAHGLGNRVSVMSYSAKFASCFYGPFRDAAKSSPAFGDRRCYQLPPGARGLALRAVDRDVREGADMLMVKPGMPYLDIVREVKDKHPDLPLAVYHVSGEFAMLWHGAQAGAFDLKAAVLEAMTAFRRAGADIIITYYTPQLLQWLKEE

[5] = tested on: REL cells; test: Differentiation culture of REL cells with inducer, β-globin gene family expression by real-time PCR; assay type: cell-based, rat; conditions: 1 mM HMBA
Procedure: as §1, §2
REL cells, rat erythroleukemia cells, (obtained from Institute of Molecular Genetics and Genetic Engineering (Prof. Popovic Serbia)) were used as other hematopoietic cells to check a change in expression of ε-globin gene. REL cells were cultured and maintained as follows. RPMI medium (Roswell Park Memorial Institute 1640; manufactured by Thermo Fisher Scientific, Inc.) containing […] FBS (manufactured by Corning, Inc.) and 1% penicillin-streptomycin (manufactured by Sigma-Aldrich Co. LLC) (hereinafter, referred to as “REL medium”) was used, and the cells were subjected to suspension culture on a low-adherent 6-cm dish (manufactured by Sumitomo Bakelite Co., Ltd.). The floating cell-containing medium was collected once every 2 days, and centrifuged for 5 min at 1000 rpm in a centrifuge (SCT5BA; manufactured by Koki Holdings Co., Ltd.) to remove the supernatant. The REL cells were suspended in 5 mL of REL medium and seeded at 5×10^5 cells per dish, and cultured under conditions at 37° C. and 5% CO2.
An inducer (hexamethylene bisacetamide: HMBA) was added to REL cells to check a change in expression of ε-globin over time. For differentiation culture of REL cells, the medium used was REL medium containing HMBA (at a final concentration of 1 mM; manufactured by Sigma-Aldrich Co. LLC.). The REL cells were suspended in 5 mL of the above medium and seeded at 5×10^5 cells per low-adherent 6-cm dish (manufactured by Sumitomo Bakelite Co., Ltd.), and then cultured under conditions at 37° C. and 5% CO2. The floating cell-containing medium was collected at Day 0, 2, 4, or 8 after the start of differentiation culture, and centrifuged for 5 min at 1000 rpm in a centrifuge (SCT5BA; manufactured by Koki Holdings Co., Ltd.) to remove the supernatant.
Like the evaluation protocol by real-time PCR in Example 1, the percentage of expression of each β-globin gene family member expressed in cells was determined by real-time PCR. […] Almost all of the β-globin gene family were an adult erythroblast marker β-globin gene under any of the conditions.

[6] = Day 2 of differentiation culture
[7] = Day 4 of differentiation culture
[8] = Day 8 of differentiation culture

In the case of CCCC(=O)[O-].[Na+] [sodium butyrate], the “Relative expression level of β-Globin (HBB) in the β-globin gene family” value [1, 6] was 0 ± 0.0%, the “Relative expression level of γ-Globin (HBG2/1) in the β-globin gene family” value [1, 6] was 75 ± 1.6% and the “Relative expression level of ε-Globin (HBE1) in the β-globin gene family” value [1, 6] was 25 ± 1.6%. For the same molecule, the “Relative expression level of β-Globin (HBB) in the β-globin gene family” value [1, 7] was 0 ± 0.0%, the “Relative expression level of γ-Globin (HBG2/1) in the β-globin gene family” value [1, 7] was 73 ± 1.3% and the “Relative expression level of ε-Globin (HBE1) in the β-globin gene family” value [1, 7] was 27 ± 1.3%. The “Relative expression level of β-Globin (HBB) in the β-globin gene family” value [1, 8] was 0 ± 0.0%, the “Relative expression level of γ-Globin (HBG2/1) in the β-globin gene family” value [1, 8] was 70 ± 1.9% and the “Relative expression level of ε-Globin (HBE1) in the β-globin gene family” value [1, 8] was 30 ± 1.9%. For the same molecule, the “expression of ε-globin in K562 cells after addition of inducer” value [2] was “increase”.

In the case of C[C@H]1[C@@H](O)O[C@@H]2O[C@@]3(C)CC[C@H]4[C@H](C)CC[C@@H]1[C@@]24OO3 [DHA, dihydroartemisinin], the viable cell count [3] was “decreased” and the viability of cells [3] was “decreased”.

In the case of CC(=O)CC(=O)CCC(=O)O [SA, succinylacetone], the “inhibition of aminolevulinic acid dehydrogenase, upstream in the heme biosynthesis pathway” value [4] is given as “inhibits”, the viable cell count [3] is given as “decreased” and the viability of cells [3] is given as “decreased”. The “heme concentration compared to a solvent control” value ([3]; LC-MS, ng/10^6 cells, FIG. 12A) was “decrease” and the “PPIX (protoporphyrin IX) concentration” value ([3]; LC-MS, ng/10^6 cells, FIG. 12B) was “did not largely affect”.

With CC(=O)NCCCCCCNC(C)=O [HMBA, hexamethylene bisacetamide] the “Relative expression level of β-Globin (Hbb) in the β-globin gene family” value [5, 6] was 100 ± 0.0%, the “Relative expression level of γ-Globin (Hbg1) in the β-globin gene family” value [5, 6] was 0 ± 0.0% and the “Relative expression level of ε-Globin (Hbe1) in the β-globin gene family” value [5, 6] was 0 ± 0.0%. The “Relative expression level of β-Globin (Hbb) in the β-globin gene family” value [5, 7] was 100 ± 0.0%, the “Relative expression level of γ-Globin (Hbg1) in the β-globin gene family” value [5, 7] was 0 ± 0.0% and the “Relative expression level of ε-Globin (Hbe1) in the β-globin gene family” value [5, 7] was 0 ± 0.0%. For the same molecule, the “Relative expression level of β-Globin (Hbb) in the β-globin gene family” value [5, 8] was 99 ± 0.2%, the “Relative expression level of γ-Globin (Hbg1) in the β-globin gene family” value [5, 8] was 1 ± 0.1% and the “Relative expression level of ε-Globin (Hbe1) in the β-globin gene family” value [5, 8] was 0 ± 0.0%.
